Source: patent US20220195487A1, “Method for Measuring Inhibition of Bacteria by Antibacterial Drug, and Bacterial Counting Device and Method Thereof” (BEIJING XINJI JINNUO MEDICAL EQUIPMENT CO.,LTD., priority 2019, published 2022)
In brackets after ≈: the same amount, converted by molar mass.

Experiments:
Type in all cases: cell-based
[1] = system: Staphylococcus aureus (ATCC29213); test: 2 h susceptibility by resistance bacterial counter; details: Example 3, resistance counting, 2 h at 37° C., 60% of the positive count value as threshold
Description: 2.2.1 Preparation of bacterial strains: In accordance with the requirements of the CLSI standards, pick each fresh strains within 24 h with a turbidity of 0.5 McFarland units in the column of strain name in Table 5;
2.2.2 Inoculation: Take 100 μL of each bacterial suspension with a turbidity of 0.5 McFarland units and dispense to a 48-well plate with pre-configured gradient antibiotics, 500 μL dispensed in each well;
2.2.3 Incubation and detection: Incubate for 2 h at 37° C., and measure with a resistance bacterial counter. Adjust the instrument to its best sensitivity and then count bacteria. Record the 24 h routine susceptibility results for comparative analysis.

[2] = system: Staphylococcus aureus (ATCC29213); test: 24 h routine (conventional) drug susceptibility testing by visual observation
[3] = system: Staphylococcus aureus (ATCC29213); test: rapid drug susceptibility testing of living cells (live bacteria counting, 2 h); details: for Living cell counts: 2 h
Description: 1.2.1 Preparation of bacterial strains: in accordance with the requirements of the CLSI standards, pick each fresh strains within 24 h with a turbidity of 0.5 McFarland units in the column of strain name in Table 7.
1.2.2 Inoculation: take 100 μL of each bacterial suspension with a turbidity of 0.5 McFarland units and dispense to a 48-well plate with pre-configured gradient antibiotics, 500 μL dispensed in each well.
1.2.3 Incubation and detection: incubate for 2 h at 37° C., and perform live bacteria counting. Record the 24 h routine susceptibility results for comparative analysis.

CC[C@H]1OC(=O)[C@H](C)[C@@H](O[C@H]2C[C@@](C)(OC)[C@@H](O)[C@H](C)O2)[C@H](C)[C@@H](O[C@@H]2O[C@H](C)C[C@H](N(C)C)[C@H]2O)[C@](C)(O)C[C@@H](C)C(=O)[C@H](C)[C@@H](O)[C@]1(C)O [Erythromycin]
2 hMIC [1]: 0.5
24 hMIC ([2]; Example 3, 24 h routine susceptibility): 0.25
MIC, conventional drug susceptibility testing ([2]; Example 4, 24 h routine susceptibility): 0.25 µg/mL (≈ 0.341 µM)
Living cell counts ([3]; 0.03 μg/mL): 5107 cells/μL
Living cell counts ([3]; 0.06 μg/mL): 5078 cells/μL
Living cell counts ([3]; 0.12 μg/mL): 3980 cells/μL
Living cell counts ([3]; 0.25 μg/mL): 889 cells/μL
Living cell counts ([3]; 0.5 μg/mL): 609 cells/μL
Living cell counts ([3]; 1 μg/mL): 598 cells/μL
Living cell counts ([3]; 2 μg/mL): 498 cells/μL
Living cell counts ([3]; 4 μg/mL): 460 cells/μL
Living cell counts ([3]; 8 μg/mL): 446 cells/μL
Living cell counts ([3]; 16 μg/mL): 457 cells/μL
MIC, rapid drug susceptibility testing of living cells ([3]; Example 4, live bacteria counting, 2 h at 37° C.): 0.25 µg/mL
